Like-named read-outs stand apart in the source and are kept apart here.
Assays:
humans = assay: Infusion of apo A-I into humans, LDL isolated and tested on human artery wall cocultures; format: in vivo
[1] = test system: human artery wall cell cocultures; assay: LDL oxidation by human artery wall cell cocultures (lipid hydroperoxides); format: cell-based
Method: (§1) The wells of the microtiter plates were treated with 0.1% gelatin at 37° C. overnight. HASMC were added at a confluent density of 1×10^5 cells/cm^2. Cells were cultured for 2 d at which time they had covered the entire surface of the well and had produced a substantial amount of extracellular matrix. HAEC were subsequently added at 2×10^5 cells/cm^2 and were allowed to grow forming a complete monolayer of confluent HAEC in 2 d. In all experiments, HAEC and autologous HASMC (from the same donor) were used at passage levels of four to six.
(§2) In general, the cocultures were treated with native LDL (250 μg/ml) in the absence or presence of HDL for 8 h. The supernatants were collected and used for determination of lipid hydroperoxide levels. The cocultures were subsequently washed and fresh culture medium 199 (M199) without any additions was added and incubated for an additional 8 hrs. This allowed the collection of monocyte chemotactic activity released by the cells as a result of stimulation by the oxidized LDL. At the end of incubation, the supernatants were collected from cocultures, diluted 40-fold, and assayed for monocyte chemotactic activity. Briefly, the supernatant was added to a standard Neuroprobe chamber (NeuroProbe, Cabin John, Md.), with monocytes added to the top. The chamber was incubated for 60 min at 37° C. After the incubation, the chamber was disassembled and the nonmigrated monocytes were wiped off. The membrane was then air dried and fixed with 1% glutaraldehyde and stained with 0.1% Crystal Violet dye. The number of migrated monocytes was determined microscopically and expressed as the mean±SD of 12 standardized high power fields counted in quadruple wells.
Statistical significance was determined by model 1 ANOVA. […] Significance is defined as p<0.05.
Human artery wall cocultures were preincubated with ETYA at a concentration of 10^−8 mol/L or with cinnamyl-3,4-dihydroxy-α-cyanocynamate (CDC, from Biomol) at a concentration of 10^−8 mol/L in M199 containing 10% LPDS for 30 min. The cocultures were then washed and LDL was added at 250 μg/ml and incubated for 8 hrs.

C57BL/6 mice = assay: Injection into mice, LDL isolated and tested on human artery wall cocultures
LDL = assay: Removal of 13-HPODE and 15-HPETE from LDL (RP-HPLC, mass spectrometry); design: species or system human; conditions: LDL 1 mg/ml with apo A-I 100 μg/ml, 2 hrs
Method: FIG. 6, panels A through H, illustrate the removal of 13-HPODE and 15-HPETE by apo A-I from LDL. Freshly isolated LDL (1 mg/ml) was incubated alone (LDL sham), or with apo A-I (100 μg/ml) in M199 for 2 hrs, with gentle mixing. For controls, 100 μg/ml apo A-I was incubated alone in M 199 for 2 hrs (A-I Sham, Panel A and Panel E) or 1 mg/ml freshly isolated LDL was incubated alone in M 199 for 2 hrs (LDL Sham, Panel B and Panel F) with gentle mixing at 37° C. The LDL and apo A-I were then re-isolated by centrifugation using Millipore molecular weight cut-off filters (100 kDa). Lipids were extracted from apo A-I and from LDL and were analyzed by reverse phase HPLC.
High performance reverse phase liquid chromatography (RP-HPLC) was conducted according to the methods of Ames and colleagues (Yamamoto and Ames (1987) Free Rad. Biol. Med. 3: 359-361), Kambayashi and colleagues (Kambayashi et al. (1997) J. Biochem. 121: 425-431), and Alex Sevanian (personal communication). In brief, the analyses were performed by injecting isolated lipids resuspended in mobile solvent onto the column and eluting with a flow rate of 1.0 ml/min. Detection of fatty acid oxidation products was performed by UV absorbance with a diode array detector (Beckman Instruments) scanning from 200 to 350 nm or with an evaporative light scattering detector (SEDEX 55, France). […]

paraoxonase [2] = conditions: mice, six hours after injection
[3] = test system: human artery wall cell cocultures; assay: Monocyte chemotaxis assay on coculture conditioned medium; format: cell-based
Method: as §1
Monocytes were isolated using a modification of the Recalde method as previously described (Fogelman et al. (1988) J. Lipid Res. 29: 1243-1247) from the blood of normal volunteers after obtaining written consent under a protocol approved by the human research subject protection committee of the University of California, Los Angeles.
as §2

paraoxonase [4] = conditions: humans, six hours after the infusion vs two hours before
Method: After obtaining written informed consent and with IRB approval from St Bartholomew's and the Royal London School of Medicine and Dentistry, apo A-I/phosphotidylcholine discs were infused at a dose of 40 mg apo A-I /kg of body weight over four hours using the materials and protocol described by Nanjee et al (Nanjee et al. (1999) Arterioscler. Thromb. Vascul. Biol. 19: 979-989; Nanjee et al. (1996) Arteroscler. Thromb. Vascul. Biol. 16: 1203-1214) into six healthy male subjects. […] Plasma was prepared 2 hrs before and 6 hrs following the infusion, was cryopreserved as described (Havel et al. (1955) J. Clin. Invest. 43: 1345-1353) and LDL was isolated by FPLC in the authors' lab in Los Angeles before the experiments. LDL islated from plasma according to this protocol functions in a manner that is indistinguishable from freshly isolated LDL in vitro and in vivo (Rumsey et al. (1994) J. Lipid Res. 35: 1592-1598).
Paraoxonase (PON) activity was measured as previously described (Gan et al. (1991) Drug Metab. Dispos. 19: 100-106). Statistical significance was determined by model 1 ANOVA. […] Significance is defined as p<0.05.

“apo A-I: Human apo A-I from Sigma, major apolipoprotein of HDL; infused into humans as apo A-I/phosphatidylcholine discs” was tested, and the “resistance of human LDL to oxidation by artery wall cells after infusion” value (humans; apo A-I/phosphatidylcholine discs 40 mg apo A-I/kg over 4 hrs, six hours after vs two hours before, six out of six subjects) was “much more resistant to oxidation”, the “time after infusion at which LDL was rendered resistant to oxidation” value (humans; humans) was ≤ 6 h and the “oxidation by artery wall cells of mouse LDL after apo A-I treatment” value ([1]; LDL from C57BL/6 and C3H/HeJ mice on chow, incubated in vitro with human apo A-I 100 μg/ml) was “rendered resistant to oxidation”. The “protection of LDL against oxidation on co-incubation” value ([1]; apo A-I 50 μg/ml co-incubated with cocultures and LDL 250 μg/ml) was “did not protect the LDL against oxidation”, the “ability of pretreated artery wall cocultures to oxidize LDL” value ([1]; cocultures incubated 8 hrs with agent, agent removed before LDL 250 μg/ml) was “not able to oxidize the LDL” and the “oxidation by artery wall cells of LDL pre-incubated with the agent” value ([1]; human LDL incubated with agent, re-isolated, then cocultures 8 hrs) was “rendered the LDL resistant to oxidation”. The “time after injection at which LDL was rendered resistant to oxidation” value (C57BL/6 mice) was ≤ 3 h, the “persistence of LDL resistance to oxidation” value (C57BL/6 mice; 100 μg injected) was “up to 24 hours” and the “removal of HPODE and HPETE from freshly isolated LDL” value (LDL) was “effectively removed”. The “PON activity in plasma and HDL, increase” value (paraoxonase [2]) was “approximately 20%”, the “LDL-induced monocyte chemotaxis in pretreated cocultures” value ([3]; cocultures incubated 8 hrs with agent, agent removed before LDL) was “monocyte chemotaxis was prevented” and the “LDL-induced monocyte chemotactic activity of LDL pre-incubated with the agent” value ([3]; human LDL incubated with agent, re-isolated, then cocultures) was “prevented LDL-induced monocyte chemotaxis”. The “PON activity in plasma and HDL, increase” value (paraoxonase [4]) was “approximately 20%”.

From patent publication US7250304B2, “Functional assay of high-density lipoprotein” (The Regents of the University of California, priority 2000, dated 2007)
